Key:
GABAa receptor = GABAa receptor binding assay (3H-RO15-1788 displacement); details: rat cortical tissue homogenate; radioligand 0.5 nM 3H-RO15-1788 [3H-Flumazenil]; 30 min at 4° C.
Description: The pharmaceutical utility of compounds of this invention are indicated by the following assay for GABAa receptor binding activity.
Assays are carried out as described in Thomas and Tallman (J. Bio. Chem. 156:9838-9842 , J. Neurosci. 3:433-440, 1983). Rat cortical tissue is dissected and homogenized in 25 volumes (w/v) of 0.05 M Tris HCl buffer (pH 7.4 at 4° C.). The tissue homogenate is centrifuged in the cold (4°) at 20,000×g for 20′. The supernatant is decanted and the pellet is rehomogenized in the same volume of buffer and again centrifuged at 20,000×g. The supernatant is decanted and the pellet is frozen at −20° C. overnight. The pellet is then thawed and rehomogenized in 25 volume (original wt/vol) of buffer and the procedure is carried out twice. The pellet is finally resuspended in 50 volumes (w/vol of 0.05 M Tris HCl buffer (pH 7.4 at […]).
Incubations contain […] of tissue homogenate, […] of radioligand 0.5 nM (^3H-RO15-1788 [^3H-Flumazenil] specific activity 80 Ci/mmol), drug or blocker and buffer to a total volume of […]. Incubations are carried for 30 min at 4° C. then are rapidly filtered through GFB filters to separate free and bound ligand. Filters are washed twice with fresh 0.05 M Tris HCl buffer (pH 7.4 at 4° C.) and counted in a liquid scintillation counter. […] diazepam is added to some tubes to determine nonspecific binding. Data are collected in triplicate determinations, averaged and % inhibition of total specific binding is calculated. Total Specific Binding=Total−Nonspecific. In some cases, the amounts of unlabeled drugs is varied and total displacement curves of binding are carried out.

SMILES	melting point	Ki (GABAa receptor)
CNCc1ccc(NC(=O)c2c[nH]c3c2C(=O)CCCC3)cc1 [Compound 7]	173 to 175 °C	0.03 µM
CC1(C)CC(=O)c2c(C(=O)Nc3cccc(CO)c3)c[nH]c2C1 [Compound 8, N-[3-(Hydroxymethyl)phenyl]-4-oxo-6,6-dimethyl-4,5,6,7-tetrahydro-1H-indole-3-carboxamide]	233 to 235 °C	0.027 µM
CC1CC(=O)c2c(C(=O)Nc3ccc(OCCO)cc3)c[nH]c2C1 (centres unmarked) [Compound 9, N-[4-(2-Hydroxyethoxy)phenyl]-4-oxo-6-methyl-4,5,6,7-tetrahydro-1H-indole-3-carboxamide]	245 to 247 °C	0.0013 µM
O=C(Nc1ccc2c(c1)OCCO2)c1c[nH]c2c1C(=O)CCC2 [Compound 11, N-(2,3-Dihydro-1,4-benzodioxin-6-yl)-4-oxo-4,5,6,7-tetrahydro-1H-indole-3-carboxamide]	254 to 256 °C	0.007 µM
O=C(Nc1ccc2c(c1)NCC2)c1c[nH]c2c1C(=O)CCC2 [Compound 13, N-(2,3-Dihydro-1H-indol-6-yl)-4-oxo-4,5,6,7-tetrahydro-1H-indole-3-carboxamide]	322 to 323 °C	0.024 µM

Further lines, results first:

melting point	Ki (GABAa receptor)	SMILES
248 to 249 °C	0.037 µM	O=C(Nc1ccc2c(c1)OCO2)c1c[nH]c2c1C(=O)CCC2 [Compound 10, N-(1,3-Benzodioxol-5-yl)-4-oxo-4,5,6,7-tetrahydro-1H-indole-3-carboxamide]
222 to 223 °C	0.005 µM	O=C(Nc1ccc2c(c1)OCCO2)c1c[nH]c2c1C(=O)CCCC2 [Compound 12, N-(2,3-Dihydro-1,4-benzodioxin-6-yl)-4-oxo-1,4,5,6,7,8-hexahydro-cyclohepta[b]pyrrole-3-carboxamide]

Source: patent US6515140B2, “Fused pyrrolecarboxamides; a new class of GABA brain receptor ligands” (Neurogen Corporation, priority 1996, dated 2003)
